For test [1], the system named is progranulin. The test is described as follows: In vivo progranulin secretion assay after oral administration. To be noted: oral administration at 5 mg/kg; progranulin secretion post dose relative to the control. Here is the method: In vivo Assays: Progranulin can be detected in tissue sample or biofluids including blood, plasma, brain, liver and cerebrospinal fluid (CSF) from different non-human animals including rat, mouse, dog, and cynomolgus monkeys. Progranulin concentration can be detected using one or more methods including an enzyme-linked immunosorbent assay (ELISA). Non-human animals including rat, mouse, dog, and cynomolgus monkeys are administered a compound as disclosed herein by one of several routes of administration including oral, subcutaneous, and intravenous routes of administration. Samples of tissue or biofluids are collected at specific times before and following compound administration. The amount of progranulin in a specific sample collected after compound administration is compared to the amount of progranulin detected in a sample of the same tissue or biofluid obtained prior to compound administration. […] Test compounds can be administered one or more times. When compounds are administered more than one time, the number of doses and the intervals between doses can be adjusted to any combination. For example, a test compound can be administered a single time, a test compound can be administered 8 times at intervals of 12 hours, and a test compound can be administered 4 times at intervals of 24 hours. The ability of a compound to increase progranulin can be quantified in several ways. […]

The subject of test [2] is progranulin. The test is described as follows: Progranulin induction cellular assay (ELISA of secreted mouse PGRN). The format is cell-based. To be noted: progranulin induction assay; mouse pMG, primary cortical neurons and BV-2 cell lines named, cell type not given; ELISA-based readout; read-out: EC50. A digest of the protocol: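 Secreted mouse PGRN in culture medium is measured by ELISA. Cells tested are BV-2, primary cortical neurons and primary microglia. BV-2 cells are plated a day ahead, allowed 1 h to attach, then incubated 16 h.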
A general note: ELISA stands for enzyme-linked immunosorbent assay.

One may read the EC50 as the concentration giving half of the maximal effect.

Consider `N[C@@H]1CC[C@@H](C(=O)N2CCc3ccccc3[C@@H]2c2ccc(F)cc2)OC1` [Compound 5015, ((2S,5R)-5-aminotetrahydro-2H-pyran-2-yl)((S)-1-(4-fluorophenyl)-3,4-dihydroisoquinolin-2(1H)-yl)methanone], for which the “Activity Level” value with progranulin [1] is listed as 7 (at least about 300% (Activity level 7)). Further, in the test with progranulin [2], the EC50 was determined as 0.09 µM.

In the case of `N[C@H]1CC[C@H](C(=O)N2CCc3ccccc3[C@@H]2c2ccc(F)cc2)OC1` [Compound 5042, ((2R,5S)-5-aminotetrahydro-2H-pyran-2-yl)((S)-1-(4-fluorophenyl)-3,4-dihydroisoquinolin-2(1H)-yl)methanone], the “Activity Level” value in the test on progranulin [1] is listed as 6 (at least about 250% (Activity level 6)). Moreover, in the test on progranulin [2], the EC50 came out at 0.079 µM.

These data come from patent US20230406843A1, “Progranulin Modulators and Methods of Using the Same” (ARKUDA THERAPEUTICS, priority 2020, published 2023).
